From patent US20250032488A1, “METHODS OF TREATMENT USING LOU064” (NOVARTIS AG, priority 2021, published 2025)

Tested on: BALB/c mice
Assay: Ovalbumin induced anaphylaxis mouse model: BALF cell counts
Assay type: in vivo
Conditions: 10 mg/kg, 30 mg/Kg p.o. B.I.D., OVA-sensitized mice with poly I:C
Description: This experiment was carried out to investigate the anti-inflammatory effect of LOU064 (10 mg and 30 mg/Kg in OVA-sensitized mice instilleed with polyinosine-polycytidylic acid (poly I: C).
Mice were actively sensitised with ovalbumin (15 μg, s.c.) and 25 μL of Imject Alum on days 0, 7 and 14. In order to elicit a local inflammatory response in the lung, mice were repeatedly exposed on days 21-24 with an aerosol of 1% w/v ovalbumin in phosphate buffered saline (PBS), generated with an ultrasonic nebuliser (Aerogen) for 20 min. 16 h after the final exposure to OVA on day 24, polyinosine-polycytidylic acid (poly I: C, 100 μg/animal) or the vehicle (PBS) was delivered intratracheally with a Microsprayer (model IA-1C with FMJ-250 high pressure syringe, Penn-Century) under anaesthesia with ketamine (100 mg/Kg, i.p.) and xylazine (10 mg/Kg, i.p.). […]
24 h after the final OVA challenge, blood samples were collected by venepuncture into pre-chilled Li Hep tubes. […] The cell pellets were then re-suspended in 1.6 mL of phosphate buffered saline and the BAL cells were then analysed for total and differential numbers. Total and differential cell counts of the BAL fluid samples were measured using a XT-2000iV analyser (Sysmex). […]

SMILES: C=CC(=O)N(C)CCOc1c(N)ncnc1-c1cc(F)cc(NC(=O)c2ccc(C3CC3)cc2F)c1C [LOU064, N-(3-(6-amino-5-(2-(N-methylacrylamido)ethoxy)pyrimidin-4-yl)-5-fluoro-2-methylphenyl)-4-cyclopropyl-2-fluorobenzamide]
- Numbers of cells involved in lung anaphylaxis (BALF): significantly reduced
